Measured values published in article PMC6391970, “Design, Synthesis and Characterization of Covalent KDM5 Inhibitors” (Angewandte Chemie (International Ed. in English), 2018).

Target: T1, KDM4B (Homo sapiens, UniProt O94953)
T1 sequence (O94953 1-1096): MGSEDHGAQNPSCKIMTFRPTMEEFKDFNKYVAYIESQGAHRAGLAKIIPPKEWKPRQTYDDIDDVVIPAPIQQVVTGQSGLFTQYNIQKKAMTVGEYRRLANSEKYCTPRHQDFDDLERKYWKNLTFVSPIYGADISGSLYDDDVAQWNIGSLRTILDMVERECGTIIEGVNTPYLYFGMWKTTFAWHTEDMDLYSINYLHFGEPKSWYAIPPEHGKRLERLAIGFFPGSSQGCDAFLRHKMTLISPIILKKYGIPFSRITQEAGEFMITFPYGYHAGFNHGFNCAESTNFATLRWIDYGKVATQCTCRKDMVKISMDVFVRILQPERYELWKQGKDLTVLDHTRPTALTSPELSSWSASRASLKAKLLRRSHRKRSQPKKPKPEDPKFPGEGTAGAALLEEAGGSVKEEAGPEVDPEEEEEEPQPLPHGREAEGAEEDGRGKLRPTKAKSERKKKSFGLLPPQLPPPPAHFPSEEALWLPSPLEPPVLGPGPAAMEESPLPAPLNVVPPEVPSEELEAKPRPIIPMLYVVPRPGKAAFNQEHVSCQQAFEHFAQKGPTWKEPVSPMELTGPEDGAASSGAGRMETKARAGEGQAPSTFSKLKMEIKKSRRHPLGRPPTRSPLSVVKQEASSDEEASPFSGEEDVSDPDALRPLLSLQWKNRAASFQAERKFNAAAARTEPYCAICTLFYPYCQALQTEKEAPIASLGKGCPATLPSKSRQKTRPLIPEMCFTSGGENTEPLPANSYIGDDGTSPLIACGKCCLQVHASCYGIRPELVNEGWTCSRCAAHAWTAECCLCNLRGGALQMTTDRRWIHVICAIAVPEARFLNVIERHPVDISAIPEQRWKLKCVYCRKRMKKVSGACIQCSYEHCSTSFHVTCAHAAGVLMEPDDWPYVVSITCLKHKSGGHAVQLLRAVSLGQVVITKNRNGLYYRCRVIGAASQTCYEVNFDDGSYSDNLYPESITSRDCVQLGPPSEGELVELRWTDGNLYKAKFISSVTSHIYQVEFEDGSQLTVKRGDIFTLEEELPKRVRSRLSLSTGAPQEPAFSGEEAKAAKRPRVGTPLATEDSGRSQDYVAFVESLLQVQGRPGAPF
Experiment: KDM AlphaScreen selectivity panel, KDM4B
Type: biochemical
Details: for IC50: AlphaScreen after 120 min pre-incubation, read-out: KDM IC50 4B; for SI over KDM5B, 4B: KDM4B IC50/KDM5B IC50
Method: A panel of JmjC KDMs was tested by AlphaScreen to determine the selectivity of the compounds (Table S2). […]
KDM alpha screen selectivity
Inhibition of histone demethylases was assessed using the histone demethylase AlphaScreen assay (Amplified Luminescence Proximity Homogenous Assay) as previously reported.[4] The basis of this assay for lysine demethylases have been widely described.[5] In brief, the assay was performed in 384-well plate format using white proxiplates (PerkinElmer), and transfer of titrations of compounds (100 nl) was performed using an ECHO 550 acoustic dispenser […]
Tween- 20) containing the appropriate demethylase enzyme (see Supplementary table 1 for final concentrations) was transferred to each well of a 384-well proxiplate with a Multidrop™ Combi Reagent Dispenser, and the enzymes allowed to pre-incubate for 120 minutes with compound (final concentration of DMSO was 1%). After that time, the enzyme reaction was initiated by addition of 5 µl of a substrate mix consisting of Ketoglutarate (2-OG), Ferrous Ammonium Sulphate (FAS), L-Ascorbic Acid (LAA) and biotinylated peptide substrate (see Supporting table X for final assay concentrations) and the reaction incubated for the indicated time at room temperature. Reaction was stopped by the addition of 5 μl of assay buffer containing EDTA (7.5 mM) and NaCl (400 mM). Streptavidin Donor beads (0.08 mg/ml) and Protein-A conjugated acceptor beads (0.08 mg/ml) (AlphaScreen General IgG detection kit was from Perkin Elmer) were pre-incubated for 1 hour with an antibody to the product methyl mark (Supplementary Table 1) and the presence of biotin-H3-product was detected by addition of 5 µl of the pre-incubated AlphaScreen beads (final concentrations of 0.02 mg/ml with respect to acceptor and donor beads). Detection was allowed to proceed for 2 hour at room temperature and the assay plates read in a BMG Labtech Pherastar FS plate reader (excitation, 680 nm; emission, 570 […]
IC50(t) = Ki (1 + K ) . ( η . k .t − 1) (1) […]
Table S4. AlphaScreen assay conditions for the KDM selectivity panel

SMILES	IC50	SI over KDM5B, 4B	selectivity over KDM4B
C=CC(=O)NCCOc1ccc(-c2[nH]c3c(C#N)cnn3c(=O)c2C(C)C)cc1 [Compound 9]	6.3 ± 0.6 µM	97	–
C=CC(=O)N1CCC(n2cc(-c3[nH]c4c(C#N)cnn4c(=O)c3C(C)C)cn2)CC1 [Compound 10]	14.2 ± 1.1 µM	831	> 500 fold
CN(CCc1cnn(-c2nccc3c(=O)[nH]cnc23)c1)Cc1cccc(NC(=O)CCl)c1 [Compound 5]	0.7 ± 0.2 µM	68	more than 60 fold
CN(C)C/C=C/C(=O)Nc1cccc(CN(C)CCc2cnn(-c3nccc4c(=O)[nH]cnc34)c2)c1 [Compound 6]	1.9 ± 0.1 µM	–	–
CC(C)c1c(-c2cnn(C3CCN(C(=O)CCl)CC3)c2)[nH]c2c(C#N)cnn2c1=O [Compound 11]	4.6 ± 0.1 µM	513	–
C=CC(=O)Nc1cccc(CN(C)CCc2cnn(-c3nccc4c(=O)[nH]cnc34)c2)c1 [Compound 4]	1.1 ± 0.1 µM	–	–
CC(C)c1c(-c2cnn(CCNC(=O)CCl)c2)[nH]c2c(C#N)cnn2c1=O [Compound 7]	4.1 ± 0.2 µM	572	> 500 fold
